Test results: ChEMBL document CHEMBL1144074, “Glycoside primers of Psittacanthus cucullaris” (J Nat Prod, 1999)
Active and inactive are the calls of the source. The calls are words filed in the database; no cut-off is given here.

Tested on: CHO
Experiment: Stimulation of glycosaminoglycan chains formation in xylosyltransferase-deficient CHO pgsA-745 cells by liquid scintillation spectrophotometry
Assay type: functional, cell-based
Conditions: Cricetulus griseus

Row | SMILES | Activity
1 | COc1c(O)cc2c(=O)oc3c(OC)c(O[C@@H]4OC[C@@H](O)[C@H](O)[C@H]4O)cc4c(=O)oc1c2c34 | Active
2 | COc1cc2c(=O)oc3c(OC)c(O[C@@H]4OC[C@@H](O)[C@H](O)[C@H]4O)cc4c(=O)oc(c1OC)c2c34 | Active
